In ChEMBL document CHEMBL1201862, “PubChem BioAssay data set” (2004):
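Five compound concentrations were applied to cells in 96-well plates for 48 hours; endpoints were derived by simple linear interpolation of the resulting dose-response curve. At the GI50, growth is halved.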 Calls of active or inactive are those of the source. Cut-off read from the data, not from the text of the source: active = GI50 up to about 1.1 µM and inactive = higher.

Legend:
Assay in all cases: growth of human tumour cells (NCI), 48 h
NCI-H522 = tested on: NCI-H522
HL-60 = tested on: HL-60
SNB-78 = tested on: SNB-78
SF-295 = tested on: SF-295
CCRF-CEM = tested on: CCRF-CEM
SF-268 = tested on: SF-268
EKVX = tested on: EKVX
OVCAR-8 = tested on: OVCAR-8
786-0 = tested on: 786-0
M14 = tested on: M14
COLO 205 = tested on: COLO 205
Malme-3M = tested on: Malme-3M
RPMI-8226 = tested on: RPMI-8226
KM-20L2 = tested on: KM-20L2
HCC 2998 = tested on: HCC 2998
LXFL 529 = tested on: LXFL 529
OVCAR-5 = tested on: OVCAR-5
NCI-H23 = tested on: NCI-H23
SF-539 = tested on: SF-539
HOP-62 = tested on: HOP-62

Measured: GI50

CCc1cccc(C(C)C)c1NC(=O)C(=O)C(C(=O)C(=O)OC)c1nc2ccccc2nc1O (centres undefined)
inactive: NCI-H522 > 100 µM | HL-60 > 100 µM | SNB-78 > 100 µM | SF-295 > 100 µM | CCRF-CEM > 100 µM | SF-268 > 100 µM | EKVX 44.7 µM | OVCAR-8 > 100 µM | 786-0 > 100 µM | M14 > 100 µM | COLO 205 > 100 µM | Malme-3M > 100 µM | RPMI-8226 > 100 µM | KM-20L2 > 100 µM | HCC 2998 > 100 µM | LXFL 529 > 100 µM | OVCAR-5 > 100 µM | NCI-H23 > 100 µM

CC1=C(C(=O)CC(=O)C(=O)Nc2ccc(C)c(C)c2)Sc2ccccc2N1
inactive: NCI-H522 > 100 µM | SNB-78 > 100 µM | SF-295 > 100 µM | SF-268 > 100 µM | EKVX > 100 µM | OVCAR-8 > 100 µM | 786-0 > 100 µM | SF-539 > 100 µM | M14 > 100 µM | COLO 205 > 100 µM | Malme-3M > 100 µM | RPMI-8226 > 100 µM | KM-20L2 > 100 µM | HCC 2998 > 100 µM | LXFL 529 > 100 µM | HOP-62 > 100 µM | OVCAR-5 > 100 µM | NCI-H23 > 100 µM

O=[PH](O)c1cc2c3ccccc3ccc2c2ccccc12
inactive: NCI-H522 > 100 µM | HL-60 > 100 µM | SNB-78 > 100 µM | SF-295 > 100 µM | CCRF-CEM > 100 µM | SF-268 > 100 µM | EKVX > 100 µM | OVCAR-8 > 100 µM | 786-0 > 100 µM | SF-539 > 100 µM | M14 > 100 µM | COLO 205 > 100 µM | RPMI-8226 > 100 µM | KM-20L2 > 100 µM | HCC 2998 > 100 µM | LXFL 529 > 100 µM | HOP-62 > 100 µM | NCI-H23 > 100 µM

O=C1/C(=C/c2cc(O)c(O)c(O)c2)Oc2cc(O)cc(OC3OC(CO)C(O)C(O)C3O)c21 (centres undefined)
inactive: HL-60 15.6 µM | SNB-78 19.4 µM | SF-295 16.5 µM | CCRF-CEM 17.5 µM | EKVX 43.6 µM | OVCAR-8 18.2 µM | 786-0 27.9 µM | SF-539 > 100 µM | M14 21.5 µM | COLO 205 22.2 µM | RPMI-8226 20.2 µM | KM-20L2 21.2 µM | HCC 2998 39.2 µM | LXFL 529 14.6 µM | NCI-H23 19.1 µM

CCOc1ccccc1NC(=O)C(=O)Cc1nc2ccccc2s1
inactive: NCI-H522 > 100 µM | HL-60 > 100 µM | SNB-78 > 100 µM | SF-295 > 100 µM | CCRF-CEM > 100 µM | SF-268 > 100 µM | EKVX > 100 µM | OVCAR-8 > 100 µM | 786-0 > 100 µM | SF-539 > 100 µM | M14 > 100 µM | COLO 205 > 100 µM | Malme-3M > 100 µM | KM-20L2 > 100 µM | HCC 2998 > 100 µM | LXFL 529 > 100 µM | HOP-62 > 100 µM | NCI-H23 > 100 µM

C=CCc1cc(-c2cc(CC=C)c(O)c(CNCCCl)c2)cc(CNCCCl)c1O
inactive: NCI-H522 16.9 µM | HL-60 17.3 µM | SNB-78 39.3 µM | SF-295 17.5 µM | CCRF-CEM 18.3 µM | SF-268 22.6 µM | OVCAR-8 19.9 µM | 786-0 28.6 µM | M14 18 µM | COLO 205 17.9 µM | Malme-3M 22.2 µM | RPMI-8226 21.4 µM | KM-20L2 17.5 µM | HCC 2998 17.3 µM | LXFL 529 15.1 µM | HOP-62 18 µM | NCI-H23 16 µM

CN1C(=O)C(=CN)C(=O)N(C)C1=O
inactive: NCI-H522 > 100 µM | HL-60 > 100 µM | SNB-78 > 100 µM | SF-295 > 100 µM | CCRF-CEM > 100 µM | SF-268 > 100 µM | EKVX > 100 µM | OVCAR-8 > 100 µM | 786-0 > 100 µM | M14 > 100 µM | Malme-3M > 100 µM | RPMI-8226 > 100 µM | KM-20L2 > 100 µM | HCC 2998 > 100 µM | OVCAR-5 > 100 µM | NCI-H23 > 100 µM

O=C1C(Cl)C(c2ccccc2)N1n1cnc2ccccc2c1=O (centres undefined)
inactive: NCI-H522 55.3 µM | HL-60 > 100 µM | SNB-78 > 100 µM | SF-295 > 100 µM | CCRF-CEM > 100 µM | SF-268 85.3 µM | EKVX 44.2 µM | OVCAR-8 > 100 µM | 786-0 > 100 µM | M14 > 100 µM | COLO 205 > 100 µM | Malme-3M > 100 µM | RPMI-8226 54.2 µM | KM-20L2 > 100 µM | HCC 2998 > 100 µM | LXFL 529 > 100 µM | HOP-62 > 100 µM | OVCAR-5 > 100 µM | NCI-H23 > 100 µM

COC(=O)/C(=C/c1ccc(OC)cc1)C(C(=O)O)=C1CCCC1
inactive: NCI-H522 > 100 µM | HL-60 > 100 µM | SNB-78 > 100 µM | SF-295 > 100 µM | CCRF-CEM > 100 µM | EKVX > 100 µM | OVCAR-8 > 100 µM | 786-0 > 100 µM | SF-539 > 100 µM | M14 > 100 µM | COLO 205 > 100 µM | RPMI-8226 > 100 µM | KM-20L2 > 100 µM | HCC 2998 > 100 µM | LXFL 529 > 100 µM | HOP-62 > 100 µM | OVCAR-5 > 100 µM | NCI-H23 > 100 µM

CCOc1ccc(NC(=O)CC#N)cc1
inactive: NCI-H522 > 100 µM | HL-60 > 100 µM | SNB-78 > 100 µM | SF-295 > 100 µM | CCRF-CEM > 100 µM | SF-268 > 100 µM | EKVX > 100 µM | OVCAR-8 > 100 µM | 786-0 > 100 µM | M14 > 100 µM | COLO 205 > 100 µM | Malme-3M > 100 µM | KM-20L2 > 100 µM | HCC 2998 6.79 µM | LXFL 529 > 100 µM | HOP-62 > 100 µM | OVCAR-5 > 100 µM | NCI-H23 > 100 µM

COc1ccc2cc3[n+](cc2c1OC)CCc1cc(O)c(O)cc1-3
inactive: NCI-H522 > 100 µM | HL-60 > 100 µM | SNB-78 > 100 µM | SF-295 > 100 µM | CCRF-CEM > 100 µM | SF-268 > 100 µM | EKVX > 100 µM | OVCAR-8 > 100 µM | 786-0 > 100 µM | SF-539 > 100 µM | M14 > 100 µM | COLO 205 > 100 µM | Malme-3M > 100 µM | RPMI-8226 > 100 µM | KM-20L2 > 100 µM | LXFL 529 > 100 µM | HOP-62 > 100 µM | OVCAR-5 > 100 µM | NCI-H23 > 100 µM
